Experimental data from US20240279190A1, “COMPOUNDS FOR MODULATING PLATELET-TYPE 12-(S)-LIPOXYGENASE AND METHODS OF USE FOR SAME” (The Regents of The University of California, priority 2021, published 2024).
Residue numbers refer to the chain shown, from its start.

Tests used:
[1] = biological target: T1, wt12-LOX (Homo sapiens, UniProt P18054); experiment: UV-Vis-based IC50 assay, wild type 12-LOX; format: biochemical
T1 construct: 6xHis (N); made in house; insert in pFastBac1 shuttle vector (baculovirus system, own inference)
T1 sequence (P18054 1-663): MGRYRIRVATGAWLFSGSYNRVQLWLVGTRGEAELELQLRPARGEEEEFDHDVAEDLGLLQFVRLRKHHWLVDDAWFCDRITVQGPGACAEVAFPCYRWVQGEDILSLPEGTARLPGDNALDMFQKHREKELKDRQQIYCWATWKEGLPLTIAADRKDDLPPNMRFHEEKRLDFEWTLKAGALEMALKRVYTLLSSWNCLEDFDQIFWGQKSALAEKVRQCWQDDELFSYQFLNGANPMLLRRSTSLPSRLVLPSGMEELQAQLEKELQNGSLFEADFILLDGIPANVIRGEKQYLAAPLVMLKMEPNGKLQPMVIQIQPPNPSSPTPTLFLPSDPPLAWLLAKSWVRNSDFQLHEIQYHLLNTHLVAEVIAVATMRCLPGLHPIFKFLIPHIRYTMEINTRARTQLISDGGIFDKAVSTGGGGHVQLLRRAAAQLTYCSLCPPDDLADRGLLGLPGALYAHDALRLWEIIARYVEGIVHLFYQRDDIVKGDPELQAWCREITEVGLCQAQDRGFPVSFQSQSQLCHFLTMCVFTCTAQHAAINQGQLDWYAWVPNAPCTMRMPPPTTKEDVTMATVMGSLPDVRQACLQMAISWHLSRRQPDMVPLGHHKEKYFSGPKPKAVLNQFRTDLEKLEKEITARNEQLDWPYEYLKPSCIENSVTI
Description: (§1) The wild type 12-LOX (wt-12-LOX) enzyme and its mutants were expressed as fusion proteins, with an N-terminal 6×His tag, and were affinity purified by nickel-iminodiacetic acid agarose using FPLC (Biorad).
The percent inhibition was determined by comparing the enzyme rates of the control (DMSO solvent) and the inhibitor sample by following the formation of the conjugated diene product at 234 nm (ε=25,000 M^−1cm^−1). The reactions were initiated by adding 200 nM 15-LOX-2, 30 nM 12-LOX, 40 nM 15-LOX-1, or approximately 100-300 nM (total protein) of 5-LOX ammonium sulfate fraction to a cuvette with 2 mL reaction buffer, constantly stirred using a magnetic stir bar at room temperature (22° C.). Reaction buffers used for various LOX isozymes were as follows: 25 mM HEPES (pH 7.3), 0.3 mM CaCl2), 0.1 mM EDTA, 0.2 mM ATP, 0.01% Triton X-100, 10 μM AA for the crude, ammonium sulfate precipitated 5-LOX; and 25 mM HEPES (pH 7.5), 0.01% Triton X-100, 10 μM AA for 15-LOX-2, 15-LOX-1, and 12-LOX. The substrate concentration was quantitatively determined by allowing the enzymatic reaction to go to completion in the presence of soybean LOX-1. IC50 values were obtained by determining the % inhibition, relative to solvent vehicle only, at various inhibitor concentrations. […]

[2] = biological target: T2, 12-LOX mutant F414L (Homo sapiens, UniProt P18054, F414L); experiment: UV-Vis-based IC50 assay, F414L mutant; format: biochemical
T2 construct: 6xHis (N); made in house; pFastBac1 shuttle vector
T2 sequence (P18054 1-663 F414L): T1 sequence (P18054 1-663) with F414L
Text: Based on the ML355 binding mode predicted by the modeling, all residues within 5 Å of any atom of ML355 were selected for experimental mutagenesis. The selected residues were replaced with amino acids with either bulkier or smaller side chains in order to determine what specific interactions play a role in inhibitor binding. […] The numbering refers to the UniProt accession number P18054 sequence, with the N-terminal methionine assigned as amino acid number one. The primers for all mutants were designed using the online QuikChange Primer Design tool (http://www.genomics.agilent.com/primerDesignProgram.jsp) from Agilent Technologies (CA, USA). The mutations were introduced by using the QuikChange® II XL site-directed mutagenesis kit from Agilent, following the instructions in the protocol provided. […]
as §1
The percent inhibition was determined by comparing the enzyme rates of the control (DMSO solvent) and the inhibitor sample by following the formation of the conjugated diene product at 234 nm (ε=25,000 M^−1cm^−1). […] The substrate concentration was quantitatively determined by allowing the enzymatic reaction to go to completion in the presence of soybean LOX-1. […]

COc1cccc(CNc2ccc(S(=O)(=O)Nc3nc4c(ccc5ccccc54)s3)cc2)c1O [Compound LOX-12-001, 4-((2-hydroxy-3-methoxybenzyl)amino)-N-(naphtho[1,2-d]thiazol-2-yl)benzenesulfonamide]
fold increase in potency relative to ML355 ([1]; against wt12-LOX): 7.2 fold | IC50 ([1]; wt12-LOX, 10 μM AA, 25 mM HEPES pH 7.5, 22° C.): 50 ± 20 nM | IC50 ([2]; F414L): 180 ± 10 nM | fold increase in IC50 compared to wt12-LOX ([2]; F414L vs wt12-LOX): 3.6 fold
